According to US20220281930A1, “COMPOSITIONS AND METHODS FOR THE TREATMENT OF PATHOLOGICAL PAIN AND ITCH” (DUKE UNIVERSITY, priority 2019, published 2022):

Key:
KCC2 mRNA = KCC2 mRNA RT-qPCR in primary human cortical neurons; type: cell-based; conditions: KP 50, 100, 400 nM, 48 h
Experimental: The neuron-enriched cultures were established from fetal cortical specimens at 15-20 weeks of gestation. The protocols for tissue processing complied with all federal and institutional guidelines. The cultures were plated on PEI (polyethyleneimine solution) substrate and maintained in Neurobasal media supplemented with B27 as previously described (Pelsman et al., 2003, International journal of developmental neuroscience 21:117-124; Yeo et al., 2013, Proc Natl Acad Sci USA 110:4315-4320).
For RT-qPCR, the cell pellets were collected after treatments with vehicle (0.1% DMSO) or KP (50, 100, and 400 nM) for 48 h starting at day 6 in vitro.
Total RNA was isolated from cultured cell samples using Directzol RNA miniprep kit (ZymoResearch). The protocol includes DNAse digestion to exclude genomic DNA from preparations. Total RNA (1 μg) was reverse transcribed using oligo primers (dT) and SuperScriptIII first-strand synthesis kit (Invitrogen). Gene expression was assessed by quantitative real-time PCR using 2×SYBR Green Master Mix (Qiagen) and a three-step cycling protocol (anneal at 60° C./elongate at 72° C., denature at 95° C.). […] The amount of target messenger RNA (mRNA) in the experimental group relative to that in the control was determined from the resulting fluorescence and threshold values (Ct) using the ΔΔCt method. βIII-tubulin was used as housekeeping gene. […]

nerve injury pain = experiment: Nerve constriction injury (PSNL) pain model, mechanical withdrawal; type: in vivo, mouse
Experimental: For pain-related behavior, mechanical allodynia was assessed with von Frey filaments (Ugo Basile, Italy). The mice were placed on a 5×5-mm wire-mesh grid floor in individual compartments to avoid visual stimulation and allowed to adapt for 0.5 h prior to the von Frey test. The von Frey filament was then applied to the middle of the plantar surface of the hind paw with 5 g force. The withdrawal responses following the hind paw stimulation were measured at least three times, and the mechanical allodynia, which was defined as an increase in the number of withdrawal responses to the stimulation, was compared.
Thus, in vivo, KP functions as an analgesic when administered systemically in injury-related pain models.
Next, whether the analgesic effects of KP were mediated centrally at the spinal cord level was assessed.
Mechanical withdrawal was measured thresholds after nerve constriction injury (PSNL) (FIG. 12B and FIG. 12C). […] Thus, δ-cat(S276A) spinal transgenesis via AAV9 is sufficient to evoke analgesia after nerve constriction injury, to lesser degree also with δ-cat(WT). Importantly, δ-cat(S276A) spinal transgenesis was accompanied by increased expression of KCC2 in the SCDH. […] Moreover, our discovery points toward a genetically-encoded approach that can be developed for translation into clinical use as an alternative or complement to KP-related small molecules.

[1] = tested on: mouse KCC2 promoter constructs; experiment: KCC2 promoter luciferase reporter assay in N2a cells; type: cell-based; conditions: KP 400 nM
Excerpt: A fragment of the mouse KCC2 gene promoter (position −2052 […]) was amplified from genomic DNA prepared from cultured mouse primary glial cells. A 2.5 kb PCR fragment was cloned into the pGL4.17-Basic Vector (Promega) to generate the KCC2 promoter reporter construct. TCF and Kaiso binding sites were identified in this fragment. Using wild-type construct pGL4.17-KCC2 as a template, site-directed mutagenesis using Phusion DNA Polymerase enzyme (Thermo Fisher F549L) in conjunction with complementary primers bearing the specific mutation were used to mutate the Kaiso and TCF DNA-binding sites. PCR was followed by Dpn1 enzyme digestion to remove parental plasmid DNA. All constructs were verified by sequencing.
N2a cells were grown to 90% confluency in 24-well dishes in 0.4 mL of medium (DMEM, 2% Fetal Bovine Serum, 2 mM glutamine, 1% Non-essential amino acids, and 1% Penicillin/Streptomycin). Cells were transiently transfected using TurboFect reagent (Thermo Fisher R0531), with 500 ng of the pGL4.17-constructs plus 20 ng of the control Renilla plasmid (Promega, E2231) to normalize for transfection efficiency. Twenty-four hours after transfection, luminescence was measured using the Dual-Luciferase® Reporter Assay System (Promega) in a microplate luminometer (Veritas, Turner Biosystems). Mutant promoters were compared to WT, and the response of the respective promoter to KP (400 nM) was measured. Three independent transfection experiments were carried out and LUC assays were done in triplicates for each transfection. RLU is expressed as firefly luciferase activity relative to Renilla LUC activity.
Promoter expression constructs were built with rationally-targeted deletions to interrogate the effects of the Kaiso- and TCF-binding sites on activity of the KCC2 promoter and to determine if this activity was regulated by KP. For ease of transfection, key to this method, N2a neural cells were again used. The 5′ and 3′ delta-cat Kaiso binding sites functioned in repressive and enhancing manners, respectively (FIG. 11D).

O=C1Cc2c([nH]c3ccc(Br)cc23)-c2ccccc2N1 [kenpaullone, 9-bromo-7,12-dihydro-indolo [3,2-d] [1]benzazepin-6(5H)-one]
KCC2 mRNA (KCC2 mRNA): increases in a dose-dependent manner
analgesic effect on sensitized mechanical withdrawal (nerve injury pain; 10 mg/kg i.p. daily after nerve constriction injury): less accentuated
analgesic effect on sensitized mechanical withdrawal (nerve injury pain; 30 mg/kg i.p. daily after nerve constriction injury): more pronounced
behavioral sensitization of juvenile mice (nerve injury pain; KP 30 mg/kg, PSNL, juvenile mice): almost complete behavioral recovery
mechanical allodynia (nerve injury pain; intrathecal 30 μg, nerve constriction injury): reduced mechanical allodynia
protracted analgesia (nerve injury pain; systemic KP, d7-14 after nerve constriction): almost complete elimination of sensitization
KCC2 promoter LUC activity ([1]; Kaiso1 deletion (ΔK1) construct): significantly enhanced further
KCC2 promoter LUC activity ([1]; TCF deletion constructs of FIG. 11C): did not increase
KCC2 promoter LUC activity ([1]; deletion of both Kaiso sites): non-responsiveness
KCC2 promoter LUC activity ([1]; triple-deletion of both Kaiso sites and TCF site): completely non-responsive
